In patent US20260132140A1, “IMIDAZOLYL-AMINO-PYRAZINE-CARBONITRILS AS CHK-1 INHIBITORS” (BenevolentAI Bio Limited, priority 2022, published 2026):

Columns and labels:
human Chk1 kinase = target: T1, human Chk1 kinase (Homo sapiens, UniProt O14757); assay: biochemical
T1 sequence (O14757 1-476): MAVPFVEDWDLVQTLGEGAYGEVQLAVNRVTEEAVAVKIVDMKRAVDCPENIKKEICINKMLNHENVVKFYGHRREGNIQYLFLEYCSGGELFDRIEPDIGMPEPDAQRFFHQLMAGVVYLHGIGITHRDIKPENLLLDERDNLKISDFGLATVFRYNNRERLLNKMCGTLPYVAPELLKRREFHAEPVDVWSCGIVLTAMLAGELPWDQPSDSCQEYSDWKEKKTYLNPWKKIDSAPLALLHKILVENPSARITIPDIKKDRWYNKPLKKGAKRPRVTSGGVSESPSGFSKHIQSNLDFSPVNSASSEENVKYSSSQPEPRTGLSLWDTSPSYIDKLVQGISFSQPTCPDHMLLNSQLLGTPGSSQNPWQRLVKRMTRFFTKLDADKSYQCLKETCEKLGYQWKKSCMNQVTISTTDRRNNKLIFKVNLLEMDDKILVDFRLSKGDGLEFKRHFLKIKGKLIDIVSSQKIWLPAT

human Chk2 kinase = human Chk2 kinase (Homo sapiens, UniProt O96017); assay: biochemical
Chain of human Chk2 kinase (O96017 whole entry): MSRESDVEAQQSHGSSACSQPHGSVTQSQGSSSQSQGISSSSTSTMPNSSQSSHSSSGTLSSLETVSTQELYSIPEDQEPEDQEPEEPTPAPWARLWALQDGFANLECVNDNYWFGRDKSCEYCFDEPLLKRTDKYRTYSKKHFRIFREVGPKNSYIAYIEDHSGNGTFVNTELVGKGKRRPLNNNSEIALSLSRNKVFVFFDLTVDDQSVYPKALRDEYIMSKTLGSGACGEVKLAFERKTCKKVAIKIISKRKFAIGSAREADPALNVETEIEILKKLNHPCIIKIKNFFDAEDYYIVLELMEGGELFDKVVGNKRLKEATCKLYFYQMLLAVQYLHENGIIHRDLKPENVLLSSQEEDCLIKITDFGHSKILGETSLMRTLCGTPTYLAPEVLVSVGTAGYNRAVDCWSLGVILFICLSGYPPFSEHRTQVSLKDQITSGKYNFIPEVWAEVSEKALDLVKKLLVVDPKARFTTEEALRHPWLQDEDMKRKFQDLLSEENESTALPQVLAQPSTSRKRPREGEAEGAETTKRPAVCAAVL

| IC50 (human Chk1 kinase) | IC50 (human Chk2 kinase) | Structure (SMILES) |
| --- | --- | --- |
| 10 to 31.6 nM | 10000 to 100000 nM | CN(C)C1CCCN(c2ccc(-n3cnc(Nc4cnc(C#N)cn4)c3)cc2)C1 (single isomer, unassigned) [Example 122, 5-((1-(4-(3-(Dimethylamino)piperidin-1-yl)phenyl)-1H-imidazol-4-yl)amino)pyrazine-2-carbonitrile] |
| 31.6 to 100 nM | 10000 to 100000 nM | COc1cc(OC2CC3(C2)CN(C)C3)ccc1-n1cnc(Nc2cnc(C#N)cn2)c1 [Example 180, 5-((1-(2-Methoxy-4-((2-methyl-2-azaspiro[3.3]heptan-6-yl)oxy)phenyl)-1H-imidazol-4-yl)amino)pyrazine-2-carbonitrile] |
| 31.6 to 100 nM | > 100000 nM | N#Cc1cnc(Nc2cn(-c3cccc(N4CCC(N)C(F)(F)C4)c3)cn2)cn1 (single isomer, unassigned) [Example 166, 5-((1-(3-(4-Amino-3,3-difluoropiperidin-1-yl)phenyl)-1H-imidazol-4-yl)amino)pyrazine-2-carbonitrile] |
| 31.6 to 100 nM | 10000 to 100000 nM | CN1CC2(CC(Oc3cccc(-n4cnc(Nc5cnc(C#N)cn5)c4)c3)C2)C1 [Example 175, 5-((1-(3-((2-Methyl-2-azaspiro[3.3]heptan-6-yl)oxy)phenyl)-1H-imidazol-4-yl)amino)pyrazine-2-carbonitrile] |
| 10 to 31.6 nM | > 100000 nM | CC(C)C1CN(C2CCN(c3ccc(-n4cnc(Nc5cnc(C#N)cn5)c4)cc3)C2)C1 (single isomer, unassigned) [Example 134, 5-((1-(4-(3-(3-Isopropylazetidin-1-yl)pyrrolidin-1-yl)phenyl)-1H-imidazol-4-yl)amino)pyrazine-2-carbonitrile] |
| 10 to 31.6 nM | 10000 to 100000 nM | COc1cc(N2C[C@H]3C[C@@H]2CN3C)ccc1-n1cnc(Nc2cnc(C#N)cn2)c1 [Example 44, 5-((1-(2-Methoxy-4-((1R,4R)-5-methyl-2,5-diazabicyclo[2.2.1]heptan-2-yl)phenyl)-1H-imidazol-4-yl)amino)pyrazine-2-carbonitrile] |
| < 10 nM | 1000 to 10000 nM | CN(C)C1CCN(c2ccc(-n3cnc(Nc4cnc(C#N)cn4)c3)cc2)CC1 [Example 37, 5-((1-(4-(4-(Dimethylamino)piperidin-1-yl)phenyl)-1H-imidazol-4-yl)amino)pyrazine-2-carbonitrile] |
| 31.6 to 100 nM | > 100000 nM | N#Cc1cnc(Nc2cn(-c3ccc(N4CCC(N5CC(F)C5)C4)cc3)cn2)cn1 (single isomer, unassigned) [Example 129, 5-((1-(4-(3-(3-Fluoroazetidin-1-yl)pyrrolidin-1-yl)phenyl)-1H-imidazol-4-yl)amino)pyrazine-2-carbonitrile] |
| 10 to 31.6 nM | 10000 to 100000 nM | CN1CCC(Nc2ccc(-n3cnc(Nc4cnc(C#N)cn4)c3)cc2)CC1 [Example 26, 5-((1-(4-((1-Methylpiperidin-4-yl)amino)phenyl)-1H-imidazol-4-yl)amino)pyrazine-2-carbonitrile] |
| 31.6 to 100 nM | 10000 to 100000 nM | CN1CC[C@H](N(C)c2ccc(-n3cnc(Nc4cnc(C#N)cn4)c3)cc2)C1 [Example 95, (S)-5-((1-(4-(Methyl(1-methylpyrrolidin-3-yl)amino)phenyl)-1H-imidazol-4-yl)amino)pyrazine-2-carbonitrile] |
| 316 to 1000 nM | > 100000 nM | Cc1cc(CN2CC[C@@H](F)C2)cc(C)c1-n1cnc(Nc2cnc(C#N)cn2)c1 [Example 57, (R)-5-((1-(4-((3-Fluoropyrrolidin-1-yl)methyl)-2,6-dimethylphenyl)-1H-imidazol-4-yl)amino)pyrazine-2-carbonitrile] |
| 31.6 to 100 nM | 1000 to 10000 nM | CN(C)[C@@H]1CCN(c2ccc(-n3cnc(Nc4cnc(C#N)cn4)c3)cc2C(F)(F)F)C1 [Example 70, (R)-5-((1-(4-(3-(Dimethylamino)pyrrolidin-1-yl)-3-(trifluoromethyl)phenyl)-1H-imidazol-4-yl)amino)pyrazine-2-carbonitrile] |
